Assay results: US6960574B2, “Antagonists of RF-amide neuropeptides” (University of Florida, priority 2002, dated 2005)
Peptide text beside a SMILES is read from it. * marks the point of attachment. Dansyl = CN(C)c1cccc2c(S(=O)(=O)*)cccc12

Test system: receptor labeled by the radioiodinated analogue of 1 (4, [125I]-YLFQPQRF-NH2); neuropeptide FF receptor
Test: Competitive radioligand binding against 4 ([125I]Y8F-amide)
Settings: mixture-based positional scanning; difference from averaged radioligand displacement of whole library (0); about 80 a.u. = 10-fold change in Ki
Source text: Additionally, three-dimensional (3-D) molecular models of the known smaller-size neuropeptide FF antagonists 3 and 3a were constructed and their low-energy conformations were obtained in the AMBER force-field [Weiner, et al., J. Comput. Chem. 1986, 7, […].] by molecular dynamics calculations involving simulated annealing. A semi-empirical quantum chemical method with the PM3 parameterization [Stewart, J. Comput. Chem. 1989, 10, 209-220.] was used for the final geometry optimization. […] At least one of the rings in domain B is aromatic. No similarity between 3 and 3a outside these domains were apparent; therefore, the simultaneous presence of A and B domains in the structure of neuropeptide FF (1) antagonists is critical to the invention. Apparently, structural subunits (domain C) outside domains A and B should function in a cooperative manner in directing the pharmacophores into proper geometric positions when improved binding to the cognate receptor is to be obtained, which is associated with the improvement of the desired pharmacological effect. An approach involving mixture-based synthetic combinatorial libraries and positional scanning [(a) Houghten, et al., J. Med Chem. 1999, 42, 3743-3778.] was adopted in the search for preferred structural motifs in domain C that assist in achieving this objective in this invention. To allow for the use of 3 as a reference in this process, the guadinino group (A) was incorporated as part of an L-2-amino-5-{[amino(imino)methyl]amino}pentanoyl (arginyl, R, Arg) residue and 5-dimethylamino-1-naphthalenesulphonyl (dansyl) was chosen to form B (However, it must be emphasized that both R and dansyl are replaceable with moieties that bestow A and B domain attributes described in the invention).
Upon screening for residues to replace the glutamine of 3, serine (S) was the only building block in this position that increased the displacement of 4 in the radioligand-binding assay. Therefore, motifs present in dansyl-Gly-Ser-Arg-NH2, dansyl-Gly-Gln-Arg-NH2, dansyl-Gln-Ser-Arg-NH2, and dansyl-Gln-Gln-Arg-NH2 were chosen based on their affinity to the cognate receptor for further consideration as primary templates when designing the domain C of the compounds described in the invention herein. […]

Structure (SMILES) | Relative Binding Index (RBI) [a.u.]
CN(C)c1cccc2c(S(=O)(=O)N[C@@H](Cc3ccccc3)C(=O)N[C@@H](CCC(N)=O)C(=O)N[C@@H](CCCNC(=N)N)C(N)=O)cccc12 [Dansyl-FQR-amide] (Dansyl-Phe-Gln-Arg-NH2) | 23
CN(C)c1cccc2c(S(=O)(=O)N[C@@H](Cc3ccccc3)C(=O)N[C@@H](CCCNC(=N)N)C(=O)N[C@@H](CCCNC(=N)N)C(N)=O)cccc12 [Dansyl-FRR-amide] (Dansyl-Phe-Arg-Arg-NH2) | 8
CN(C)c1cccc2c(S(=O)(=O)N[C@@H](Cc3ccccc3)C(=O)N[C@@H](CO)C(=O)N[C@@H](CCCNC(=N)N)C(N)=O)cccc12 [Dansyl-FSR-amide] (Dansyl-Phe-Ser-Arg-NH2) | 30
C[C@@H](O)[C@H](NC(=O)[C@H](Cc1ccccc1)NS(=O)(=O)c1cccc2c(N(C)C)cccc12)C(=O)N[C@@H](CCCNC(=N)N)C(N)=O [Dansyl-FTR-amide] (Dansyl-Phe-Thr-Arg-NH2) | 15
CC(C)[C@H](NC(=O)[C@H](Cc1ccccc1)NS(=O)(=O)c1cccc2c(N(C)C)cccc12)C(=O)N[C@@H](CCCNC(=N)N)C(N)=O [Dansyl-FVR-amide] (Dansyl-Phe-Val-Arg-NH2) | 5
CN(C)c1cccc2c(S(=O)(=O)N[C@@H](Cc3ccccc3)C(=O)N[C@@H](Cc3c[nH]c4ccccc34)C(=O)N[C@@H](CCCNC(=N)N)C(N)=O)cccc12 [Dansyl-FWR-amide] (Dansyl-Phe-Trp-Arg-NH2) | 18
C[C@H](NC(=O)CNS(=O)(=O)c1cccc2c(N(C)C)cccc12)C(=O)N[C@@H](CCCNC(=N)N)C(N)=O [Dansyl-GAR-amide] (Dansyl-Gly-Ala-Arg-NH2) | −24
CN(C)c1cccc2c(S(=O)(=O)NCC(=O)N[C@@H](CCC(=O)O)C(=O)N[C@@H](CCCNC(=N)N)C(N)=O)cccc12 [Dansyl-GER-amide] (Dansyl-Gly-Glu-Arg-NH2) | 25
CN(C)c1cccc2c(S(=O)(=O)NCC(=O)NCC(=O)N[C@@H](CCCNC(=N)N)C(N)=O)cccc12 [Dansyl-GGR-amide] | 30
CC[C@H](C)[C@H](NC(=O)CNS(=O)(=O)c1cccc2c(N(C)C)cccc12)C(=O)N[C@@H](CCCNC(=N)N)C(N)=O [Dansyl-GIR-amide] (Dansyl-Gly-Ile-Arg-NH2) | 32
CN(C)c1cccc2c(S(=O)(=O)NCC(=O)N[C@@H](CCCCN)C(=O)N[C@@H](CCCNC(=N)N)C(N)=O)cccc12 [Dansyl-GKR-amide] (Dansyl-Gly-Lys-Arg-NH2) | 23
CSCC[C@H](NC(=O)CNS(=O)(=O)c1cccc2c(N(C)C)cccc12)C(=O)N[C@@H](CCCNC(=N)N)C(N)=O [Dansyl-GMR-amide] (Dansyl-Gly-Met-Arg-NH2) | 25
CN(C)c1cccc2c(S(=O)(=O)NCC(=O)N3CCC[C@H]3C(=O)N[C@@H](CCCNC(=N)N)C(N)=O)cccc12 [Dansyl-GPR-amide] (Dansyl-Gly-Pro-Arg-NH2) | 28
CN(C)c1cccc2c(S(=O)(=O)NCC(=O)N[C@@H](CCCNC(=N)N)C(=O)N[C@@H](CCCNC(=N)N)C(N)=O)cccc12 [Dansyl-GRR-amide] | 24
C[C@@H](O)[C@H](NC(=O)CNS(=O)(=O)c1cccc2c(N(C)C)cccc12)C(=O)N[C@@H](CCCNC(=N)N)C(N)=O [Dansyl-GTR-amide] (Dansyl-Gly-Thr-Arg-NH2) | 31
CC(C)[C@H](NC(=O)CNS(=O)(=O)c1cccc2c(N(C)C)cccc12)C(=O)N[C@@H](CCCNC(=N)N)C(N)=O [Dansyl-GVR-amide] (Dansyl-Gly-Val-Arg-NH2) | 20
C[C@H](NC(=O)[C@H](Cc1c[nH]cn1)NS(=O)(=O)c1cccc2c(N(C)C)cccc12)C(=O)N[C@@H](CCCNC(=N)N)C(N)=O [Dansyl-HAR-amide] (Dansyl-His-Ala-Arg-NH2) | −32
CN(C)c1cccc2c(S(=O)(=O)N[C@@H](Cc3c[nH]cn3)C(=O)N[C@@H](CC(=O)O)C(=O)N[C@@H](CCCNC(=N)N)C(N)=O)cccc12 [Dansyl-HDR-amide] (Dansyl-His-Asp-Arg-NH2) | −1
CN(C)c1cccc2c(S(=O)(=O)N[C@@H](Cc3c[nH]cn3)C(=O)N[C@@H](CCC(=O)O)C(=O)N[C@@H](CCCNC(=N)N)C(N)=O)cccc12 [Dansyl-HER-amide] (Dansyl-His-Glu-Arg-NH2) | 17
CN(C)c1cccc2c(S(=O)(=O)N[C@@H](Cc3cnc[nH]3)C(=O)N[C@@H](Cc3ccccc3)C(=O)N[C@@H](CCCNC(=N)N)C(N)=O)cccc12 [Dansyl-HFR-amide] (Dansyl-His-Phe-Arg-NH2) | 15
CN(C)c1cccc2c(S(=O)(=O)N[C@@H](Cc3c[nH]cn3)C(=O)NCC(=O)N[C@@H](CCCNC(=N)N)C(N)=O)cccc12 [Dansyl-HGR-amide] (Dansyl-His-Gly-Arg-NH2) | 22

Results, then the molecule that gave them:

Relative Binding Index (RBI) [a.u.] | Structure (SMILES)
8 | CN(C)c1cccc2c(S(=O)(=O)N[C@@H](Cc3ccccc3)C(=O)N[C@@H](Cc3ccc(O)cc3)C(=O)N[C@@H](CCCNC(=N)N)C(N)=O)cccc12 [Dansyl-FYR-amide] (Dansyl-Phe-Tyr-Arg-NH2)
7 | CN(C)c1cccc2c(S(=O)(=O)NCC(=O)N[C@@H](CC(=O)O)C(=O)N[C@@H](CCCNC(=N)N)C(N)=O)cccc12 [Dansyl-GDR-amide] (Dansyl-Gly-Asp-Arg-NH2)
24 | CN(C)c1cccc2c(S(=O)(=O)NCC(=O)N[C@@H](Cc3ccccc3)C(=O)N[C@@H](CCCNC(=N)N)C(N)=O)cccc12 [Dansyl-GFR-amide] (Dansyl-Gly-Phe-Arg-NH2)
19 | CN(C)c1cccc2c(S(=O)(=O)NCC(=O)N[C@@H](Cc3c[nH]cn3)C(=O)N[C@@H](CCCNC(=N)N)C(N)=O)cccc12 [Dansyl-GHR-amide] (Dansyl-Gly-His-Arg-NH2)
17 | CC(C)C[C@H](NC(=O)CNS(=O)(=O)c1cccc2c(N(C)C)cccc12)C(=O)N[C@@H](CCCNC(=N)N)C(N)=O [Dansyl-GLR-amide] (Dansyl-Gly-Leu-Arg-NH2)
26 | CN(C)c1cccc2c(S(=O)(=O)NCC(=O)N[C@@H](CC(N)=O)C(=O)N[C@@H](CCCNC(=N)N)C(N)=O)cccc12 [Dansyl-GNR-amide] (Dansyl-Gly-Asn-Arg-NH2)
39 | CN(C)c1cccc2c(S(=O)(=O)NCC(=O)N[C@@H](CCC(N)=O)C(=O)N[C@@H](CCCNC(=N)N)C(N)=O)cccc12 [Dansyl-GQR-amide, dansyl-Gly-Gln-Arg-NH2] (Dansyl-Gly-Gln-Arg-NH2)
34 | CN(C)c1cccc2c(S(=O)(=O)NCC(=O)N[C@@H](Cc3c[nH]c4ccccc34)C(=O)N[C@@H](CCCNC(=N)N)C(N)=O)cccc12 [Dansyl-GWR-amide] (Dansyl-Gly-Trp-Arg-NH2)
24 | CN(C)c1cccc2c(S(=O)(=O)NCC(=O)N[C@@H](Cc3ccc(O)cc3)C(=O)N[C@@H](CCCNC(=N)N)C(N)=O)cccc12 [Dansyl-GYR-amide] (Dansyl-Gly-Tyr-Arg-NH2)
